Reference: patent US8119589B2, “Modulation of CD4+ T cell responses by a tick saliva protein, Salp15 and polypeptides derived therefrom” (University of North Carolina at Charlotte, priority 2004, dated 2012)

Experiments:
[1] = test system: AP-1 DNA binding; settings: Anguita et al., 2002; cited from earlier work
[2] = test system: CD4+ T cells; assay: Salp15488 binding on cell surface by confocal microscopy; parameters: species or system mouse
Experimental: For colocalization experiments, Jurkat and CD4^+ T cells were cytospun as described herein. HeLa and HeLa-CD4 cells were grown on chamber slides. The cells were fixed and stained with anti-CD4 and Salp15 as follows. Purified Salp15 was labeled using Alexa-488 with the Protein Labeling Kit (Molecular Probes) according to the manufacturer's instructions. Fixed cells were blocked with 5% normal serum and anti-CD16/CD32 (1:100) in PBS, incubated with 1 μg of monoclonal biotinylated anti-CD4 (L3T4) (BD Biosciences Pharmingen) followed by streptavidin594 staining. The cells were then stained with 20 μg/mL of Salp15488. For competition assays, cells were first blocked with 5% normal serum, incubated with either polyclonal anti-CD4 antibody, MT310, OKT4, normal rabbit IgG, Salp15 (0.5 mg/mL) or lysozyme (0.5 mg/mL) followed by staining with Salp15488. All samples were mounted in a GVA Mount (Zymed, San Francisco, Calif., U.S.A.) and visualized with an Olympus Confocal microscope equipped with Fluoview 3.0 software.

[3] = molecular target: T1, CD4 co-receptor (Homo sapiens, UniProt P01730); assay: Co-immunoprecipitation with His-tagged Salp15 from Jurkat cell lysate; format: binding; settings: anti-His
T1 construct: 1-2×10^7 Jurkat, HeLa or HeLa-CD4 cells were lysed; endogenous in cells; host or cells: Jurkat
Experimental: For coimmunoprecipitation, 1-2×10^7 Jurkat, HeLa or HeLa-CD4 cells were lysed in 20 mM HEPES pH 7.4 containing 150 mM NaCl, 1% Triton-X 100, 0.25% sodium deoxycholate, 25 mM NaF, 2 mM Na3VO4, 1 mM PMSF and protease inhibitors for 15 min on ice. One mg of protein equivalent of the cell lysate was mixed with 50 μg/mL of 6× histidine-tagged-Salp15 or 6×His-tagged Salp13 fused to thioredoxin (29 kD) as a control protein, (Anguita et al., 2002, Das et al., 2001) and immunoprecipitated using an anti-poly-histidine antibody conjugated to agarose, anti-CD4, anti-CD3, anti-CD28 or normal rabbit IgG overnight at 4° C. The immunoprecipitate was run on SDS-PAGE followed by immunoblotting with anti-poly His-HRP, anti-CD4, anti-CD3, anti-CD28 or anti-TCRβ.

[4] = test system: R-EAE in SJL/J mice; assay: Relapsing-EAE model in PLP139-151 immunized SJL mice; format: in vivo, mouse
Experimental: SJL/J mice in groups of 18 are injected i.p. with 200 μg of PLP peptide 139-151 (HSLGKWLGHPDKF; SEQ ID NO: 15) (Research Genetics, Huntsville, Ala., U.S.A.). Please note that the original Cysteine has been substituted by serine for stability purposes. […] One group of mice receives daily injections of 50 μg of recombinant Salp15 produced in a Drosophila expression system, starting day 10 after immunization. This regime permits an efficient in vivo activation of PLP139-151-specific CD4^+ T cell activation. Since Salp15 has no effect on effector CD4^+ T cells (Anguita et al., 2002.), its function is expected to be circumscribed to the activation of neoreactive CD4^+ T cells. […]
At days 12 (including the 3 control mice treated with Salp15 over the course of the immunization), 14, 17, 20, 30 and 60 post-infection, 3 mice from each group are sacrificed and analyzed as follows: splenic CD4^+ T cells are purified by negative selection using biotinylated antibodies against CD8a, Ly6G, Mac-I, B220, class II (I-A^k and I-E^k) and panNK molecules (BD Biosciences Pharmingen, San Jose, Calif., U.S.A.), followed by incubation with Avidin bound to magnetic microbeads and passage through a magnetic column (Miltenyi Biotec, Auburn, Calif., U.S.A.). […]
Peripheral responses to relapsing epitopes are assessed by the analysis of delayed type hypersensitivity (DTH). […]

For “Salp15: secreted salivary protein from Ixodes scapularis, SEQ ID NO: 2; recombinant His-tagged, produced in Drosophila S2 cells”, the “AP-1 DNA binding activation” value [1] is listed as “does not affect”, the “Binding to CD4+ T cells” value [2] is listed as “bind specifically” and the “Co-immunoprecipitation of CD4” value [3] is listed as “co-immunoprecipitated”. The “Activation of CD4+ T cells in response to new epitopes (epitope spreading)” value ([4]; daily 50 μg Salp15 from day 10 after immunization) was “lowered activation” and the Degree of demyelination ([4]; histology of brains and spinal cords) was “lower degree of demyelination”.
